# In PubChem BioAssay (NCI):
# Where “and” joins values, the source holds several entries; their conditions need not be identical. Equal values may be shown once.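 Where inhibition never reached the appropriate level, the endpoint shown equals the highest concentration tested. Otherwise, values were interpolated linearly from a five-concentration, 48-hour dose response in 96-well plates. The concentration for 50% growth inhibition is given as GI50. TGI denotes the concentration required for complete inhibition of growth.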
# How the values were obtained:
# Assay in all cases: growth of human tumour cells (NCI), 48 h
# ACHN renal = system: ACHN renal
# HS 578T breast = system: HS 578T breast
# IGROV1 ovarian = system: IGROV1 ovarian
# M14 melanoma = system: M14 melanoma
# MDA-MB-231 breast = system: MDA-MB-231 breast
# NCI-H226 lung = system: NCI-H226 lung
# NCI-H460 lung = system: NCI-H460 lung
# PC-3 prostate = system: PC-3 prostate
# RXF 393 renal = system: RXF 393 renal
# SW-620 colon = system: SW-620 colon
SMILES,GI50 (ACHN renal),TGI (ACHN renal),GI50 (HS 578T breast),TGI (HS 578T breast),GI50 (IGROV1 ovarian),TGI (IGROV1 ovarian),GI50 (M14 melanoma),TGI (M14 melanoma),GI50 (MDA-MB-231 breast),TGI (MDA-MB-231 breast),GI50 (NCI-H226 lung),TGI (NCI-H226 lung),GI50 (NCI-H460 lung),GI50 (PC-3 prostate),TGI (PC-3 prostate),GI50 (RXF 393 renal),TGI (RXF 393 renal),GI50 (SW-620 colon),TGI (SW-620 colon),TGI (NCI-H460 lung)
CC(=O)c1cc(C(=O)c2ccc3c(c2)Sc2ccccc2N3)c2c(C)cc(C)cn12,0.605 µM,> 40.1 µM,0.343 µM,> 36 µM,0.596 µM,> 100 µM,0.253 µM,> 100 µM,0.458 µM,8.95 µM,0.73 µM,> 100 µM,0.311 µM,0.362 µM,> 100 µM,0.162 µM,0.699 µM,0.372 µM,> 100 µM,–
O=[N+]([O-])c1ccccc1N/N=C\c1c[nH]c2ccccc12,13.9 µM,> 67.3 µM,3.9 µM,25.8 µM,0.0379 µM,3.92 µM,34.7 µM,> 100 µM,2.98 µM,20.5 µM,12.6 µM,> 100 µM,10.3 µM,4.25 µM,> 100 µM,10.7 µM,57.8 µM,17.8 µM,> 100 µM,> 100 µM
CC(C)(C)C(=O)OCOP(=O)(OCOC(=O)C(C)(C)C)C1CC(O)N(O)C1=O (centres undefined),6.04 µM,> 100 µM,2.59 µM,7.85 µM,2.83 µM,9.72 µM,8.44 µM,> 100 µM,3.65 µM,40.9 µM,33.5 µM,> 100 µM,4.35 µM,8.81 µM,> 100 µM,2.37 µM,7.71 µM,4.46 µM,> 100 µM,> 100 µM
Cc1ccc(C(SCC(N)C(=O)O)(c2ccc(C)cc2)c2ccc(C)cc2)cc1 (centres undefined),14.5 µM,> 68.3 µM,0.669 µM,4.44 µM,10.3 µM,29.5 µM,0.729 µM,2.37 µM,1.93 µM,7.77 µM,9.84 µM,> 49.8 µM,2.3 µM,2.94 µM,20.1 µM,1.46 µM,14.8 µM,1.64 µM,15.8 µM,12 µM
Cn1cc(C2=C(c3cn(C)c4c([N+](=O)[O-])cccc34)C(=O)NC2=O)c2ccccc21,> 25 µM,> 25 µM,> 25 µM,> 25 µM,> 25 µM,> 25 µM,> 25 µM,> 25 µM,> 25 µM,> 25 µM,> 25 µM,> 25 µM,> 25 µM,> 25 µM,> 25 µM,> 25 µM,> 25 µM,> 25 µM,> 25 µM,> 25 µM
Nc1nc(OCc2cc(Br)cs2)c2[nH]cnc2n1,13.7 µM,52 µM,25.6 µM,83.7 µM,14.5 µM,52.1 µM,26.7 µM,> 100 µM,27.8 µM,> 100 µM,24.6 µM,> 100 µM,25 µM,21.8 µM,> 100 µM,14 µM,55.5 µM,40.2 µM,> 100 µM,> 100 µM
Cc1ccccc1-n1ncc(C(=O)c2ccccc2)c1N,> 25 µM,> 25 µM,> 25 µM,> 25 µM,> 25 µM,> 25 µM,> 25 µM,> 25 µM,> 25 µM,> 25 µM,> 25 µM,> 25 µM,> 25 µM,> 25 µM,> 25 µM,> 25 µM,> 25 µM,> 25 µM,> 25 µM,> 25 µM
CCCCCCCCN(CCCCCCCC)CCCCCCNc1cc(OC)cc2cccnc12,11 µM,23.7 µM,11 µM,29.7 µM,13.2 µM,29.4 µM,3.33 µM,12.4 µM,4.75 µM,15.9 µM,17 µM,33.7 µM,8.27 µM,4.18 µM,19 µM,14.2 µM,28.5 µM,2.75 µM,10.1 µM,21.6 µM
CS(=O)(=O)Nc1ccc(-c2cc(-c3ccccc3)cc(C(N)=O)c2N)cc1,> 25 µM,> 25 µM,> 22.4 µM,> 25 µM,> 25 µM,> 25 µM,> 25 µM,> 25 µM,> 25 µM,> 25 µM,> 25 µM,> 25 µM,> 25 µM,14.2 µM,> 25 µM,> 25 µM,> 25 µM,> 25 µM,> 25 µM,> 25 µM
CCCCCCCCCCCCCC1=NCCN1CCO,2.04 µM,4.68 µM,2.66 µM,6.54 µM,4.46 µM,> 100 µM,3.68 µM,10.9 µM,3.04 µM,8.28 µM,17.5 µM,41.2 µM,2.13 µM,3.37 µM,> 34.5 µM,2.72 µM,7.43 µM,2.25 µM,5.22 µM,4.63 µM
C=CC(C1=CC(=O)C(OC)=CC1=O)c1ccccc1 (centres undefined),–,27.4 µM,–,69.7 µM,–,30.3 µM,–,37.7 µM,–,19.2 µM,–,39.6 µM,–,–,25.7 µM,–,29.2 µM,–,48.6 µM,36.3 µM
COC1CCN(C(=O)c2cc(Cc3n[nH]c(=O)c4ccccc34)ccc2F)CC1,> 100 µM,> 100 µM,> 64.5 µM,> 100 µM,> 60.4 µM,> 100 µM,> 90.9 µM,> 100 µM,> 100 µM,> 100 µM,89.2 µM,> 100 µM,25.6 µM,> 87.6 µM,> 100 µM,0.926 µM,45.2 µM,> 100 µM,> 100 µM,> 100 µM
COc1cc(OC)c(/C=C\c2ccnc3ccccc23)c(OC)c1,–,17.5 µM,–,12.1 µM,–,15.5 µM,–,15.2 µM,–,15.4 µM,–,16.8 µM,–,–,23 µM,–,11.6 µM,–,20.8 µM,14.2 µM
CCOC(=O)n1cc(C2=C(c3cn(C)c4ccccc34)COC2=O)c2ccccc21,0.0795 µM,> 100 µM,0.116 µM,21.1 µM,0.0564 µM,> 45.8 µM,0.0478 µM,> 100 µM,0.347 µM,> 70.5 µM,0.452 µM,> 39 µM,0.371 µM,0.162 µM,> 100 µM,0.0356 µM,0.377 µM,0.0724 µM,> 100 µM,> 100 µM
COC(=O)C(=O)C(C(=O)C(=O)Nc1nc2ccc(C)cc2s1)c1nc2ccc([N+](=O)[O-])cc2[nH]c1=O (centres undefined),–,> 100 µM,–,> 100 µM,–,> 100 µM,–,> 100 µM,–,> 100 µM,–,> 100 µM,–,–,> 100 µM,–,> 100 µM,–,> 100 µM,> 100 µM
c1cc2[nH]ncc2cc1-c1nc2ccc3[nH]ncc3c2c2c1CCCC2,0.583 µM,10.7 µM,1.71 µM,13.7 µM,0.541 µM,7.29 µM,0.523 µM,10.8 µM,2.67 µM,11.6 µM,1.73 µM,7.79 µM,1.2 µM,1.44 µM,21.5 µM,0.822 µM,2.86 µM,0.441 µM,11.2 µM,10.5 µM
O=C1Nc2c(C(F)(F)F)cccc2[C@@]1(c1ccc(O)cc1)c1ccc(OC(F)(F)F)cc1,0.0178 µM,0.0349 µM,< 0.01 µM,< 0.01 µM,< 0.01 µM,0.0417 µM,0.0537 µM,14.1 µM,0.222 µM,18.2 µM,0.0108 µM,0.0273 µM,4.19 µM,< 0.0141 µM,0.388 µM,< 0.0107 µM,< 0.0232 µM,14.1 µM,28.6 µM,19.7 µM
O=C(/C(=C\c1ccc([N+](=O)[O-])cc1)S(=O)Cc1ccc(F)cc1)c1ccc(F)cc1 (centres undefined),2.33 µM,6.51 µM,3.3 µM,75 µM,1.69 µM,3.49 µM,1.79 µM,3.76 µM,1.99 µM,4.35 µM,4.32 µM,21.9 µM,2.13 µM,1.69 µM,3.47 µM,1.78 µM,3.38 µM,1.58 µM,3.13 µM,4.7 µM
Clc1ccc2c(c1)N(c1ncnc3ccc(-c4cnc5[nH]ccc5c4)cc13)CC2,2.12 µM,28.2 µM,0.555 µM,16.9 µM,0.304 µM,2.27 µM,0.992 µM,11.9 µM,2.01 µM,19.3 µM,2.76 µM,22 µM,0.952 µM,2.28 µM,23.6 µM,0.442 µM,12.2 µM,1.38 µM,14.7 µM,12.4 µM
CCN(CC)CCOc1ccccc1/C=C/c1noc2ccccc12,–,25.9 µM,–,32.3 µM,–,22.3 µM,–,15.4 µM,–,25.7 µM,–,30.5 µM,–,–,19.8 µM,–,9.97 µM,–,23 µM,25.3 µM
C=CC(=O)NCc1cccc(Nc2ncc(Br)c(NCCCNC(=O)C3CCC3)n2)c1,1.66 µM and 0.712 µM,12.5 µM and > 25 µM,0.295 µM and 0.539 µM,1.53 µM and 1.86 µM,1.17 µM and 0.732 µM,12.5 µM and 15.8 µM,1.86 µM and 1.19 µM,10.2 µM and 5.91 µM,0.567 µM and 0.463 µM,11.6 µM and 1.8 µM,0.999 µM and 0.448 µM,7.85 µM and 11.8 µM,0.941 µM and 1.27 µM,1.55 µM and 0.933 µM,12.5 µM and 7.04 µM,0.166 µM and 0.123 µM,0.844 µM and 0.468 µM,0.661 µM and 1.15 µM,12.5 µM and 11.7 µM,4.7 µM and 5.55 µM
COc1ccc(C(=O)COC(=O)[C@H](C[Se][Se]C[C@H](NC(=O)c2ccc(Br)cc2F)C(=O)OCC(=O)c2ccc(OC)cc2)NC(=O)c2ccc(Br)cc2F)cc1,0.884 µM,2.49 µM,0.362 µM,0.966 µM,0.82 µM,2.62 µM,0.588 µM,1.85 µM,0.846 µM,2.77 µM,0.581 µM,2.07 µM,0.353 µM,0.318 µM,1.41 µM,1.56 µM,3.19 µM,1.44 µM,3.89 µM,1.31 µM
N/N=C(\C(=O)Nc1ccc(Cl)cc1Cl)C(c1cnc2ccccc2n1)[N+](=O)[O-] (centres undefined),–,> 100 µM,–,> 100 µM,–,> 100 µM,–,> 100 µM,–,> 100 µM,–,> 100 µM,–,–,> 100 µM,–,> 100 µM,–,> 100 µM,> 100 µM
COC(=O)[C@]12CC[C@@H](C)[C@H](C)[C@@H]1C1=CC[C@@H]3[C@@]4(C)C(C=O)=C[C@@](C)(COC(C)=O)C4=CC[C@@]3(C)[C@]1(C)CC2,3.12 µM,12.4 µM,5.07 µM,30.3 µM,5.51 µM,22.7 µM,5.27 µM,22.4 µM,5.74 µM,23.5 µM,6.28 µM,22.8 µM,3.98 µM,3.07 µM,13.9 µM,3.55 µM,14.1 µM,4.15 µM,16.2 µM,15.2 µM
Cc1ccc(-c2cc3c(SCC(=O)Nc4cc(C(F)(F)F)ccc4Cl)nccn3n2)cc1,6.17 µM,> 100 µM,11.7 µM,> 100 µM,> 100 µM,> 100 µM,> 100 µM,> 100 µM,94.5 µM,> 100 µM,> 100 µM,> 100 µM,81.6 µM,> 100 µM,> 100 µM,> 100 µM,> 100 µM,> 100 µM,> 100 µM,> 100 µM
COc1ccc(C(SCC(N)C(=O)O)(c2ccccc2)c2ccccc2)cc1 (centres undefined),3.73 µM,> 100 µM,0.0432 µM,3.1 µM,0.443 µM,> 82.3 µM,0.0309 µM,0.126 µM,0.23 µM,4.72 µM,11.8 µM,> 71.2 µM,0.23 µM,0.185 µM,> 100 µM,0.19 µM,> 100 µM,0.0745 µM,> 100 µM,> 41.9 µM
